# Results: PubChem BioAssay (NCI)
#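 All cell lines were grown in 96-well plates and treated with compound for 48 hours. Definition used: TGI = concentration required for complete inhibition of growth.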
# Assays:
# Assay in all cases: NCI-60 cell line screen, 48 h
# RXF 393 renal = tested on: RXF 393 renal
# COLO 205 colon = tested on: COLO 205 colon
# SNB-19 CNS = tested on: SNB-19 CNS
# KM12 colon = tested on: KM12 colon
# EKVX NSCLC = tested on: EKVX NSCLC
# SF-539 CNS = tested on: SF-539 CNS
# HCC-2998 colon = tested on: HCC-2998 colon
# SW-620 colon = tested on: SW-620 colon
# UACC-257 melanoma = tested on: UACC-257 melanoma
# A549 NSCLC = tested on: A549 NSCLC
# SR leukemia = tested on: SR leukemia
# MDA-N = tested on: MDA-N
# NCI/ADR-RES ovarian = tested on: NCI/ADR-RES ovarian
# UACC-62 melanoma = tested on: UACC-62 melanoma
# OVCAR-5 ovarian = tested on: OVCAR-5 ovarian
# OVCAR-8 ovarian = tested on: OVCAR-8 ovarian
# IGROV1 ovarian = tested on: IGROV1 ovarian
# MDA-MB-231 breast = tested on: MDA-MB-231 breast
Compound,TGI (RXF 393 renal),TGI (COLO 205 colon),TGI (SNB-19 CNS),TGI (KM12 colon),TGI (EKVX NSCLC),TGI (SF-539 CNS),TGI (HCC-2998 colon),TGI (SW-620 colon),TGI (UACC-257 melanoma),TGI (A549 NSCLC),TGI (SR leukemia),TGI (MDA-N),TGI (NCI/ADR-RES ovarian),TGI (UACC-62 melanoma),TGI (OVCAR-5 ovarian),TGI (OVCAR-8 ovarian),TGI (IGROV1 ovarian),TGI (MDA-MB-231 breast)
O=C(c1ccccc1)C1C[C@H]2CO[C@H](c3ccccc3)N2C1=O (some centres not stated),> 100 µM,> 100 µM,> 100 µM,> 100 µM,> 100 µM,> 100 µM,> 100 µM,> 100 µM,> 100 µM,> 100 µM,> 100 µM,> 100 µM,> 100 µM,> 100 µM,> 100 µM,> 100 µM,> 100 µM,> 100 µM
Cc1ccc(C2SCC(=O)N2NC(=O)c2ccncc2)s1 (configuration not stated),> 100 µM,> 100 µM,> 100 µM,> 100 µM,> 100 µM,> 100 µM,> 100 µM,> 100 µM,> 100 µM,> 100 µM,> 100 µM,> 100 µM,> 100 µM,> 100 µM,> 100 µM,> 100 µM,> 100 µM,> 100 µM
COC(=O)/C=C1/OC(c2ccc(C)cc2)=C(Cl)C1=O,26.6 µM,23.7 µM,52.2 µM,30.7 µM,42.3 µM,35.5 µM,34.4 µM,28.9 µM,43.1 µM,40.4 µM,9.06 µM,33.1 µM,56.1 µM,36.9 µM,35 µM,41.3 µM,34.4 µM,33.6 µM
COc1cccc(Nc2nc(N)nc(N)c2N=O)c1,> 100 µM,51.9 µM,> 100 µM,> 100 µM,> 100 µM,35.7 µM,34.4 µM,> 100 µM,56.9 µM,> 100 µM,45.5 µM,> 100 µM,52.5 µM,38.8 µM,> 100 µM,40.9 µM,94 µM,> 100 µM
O=[N+]([O-])c1ccc(C(=Nc2ccccc2)SSC(=Nc2ccccc2)c2ccc([N+](=O)[O-])o2)o1,4.55 µM,2.44 µM,4.07 µM,4.15 µM,3.48 µM,4.01 µM,3.41 µM,,> 21.9 µM,,> 100 µM,12.4 µM,7.43 µM,3.4 µM,5.04 µM,3.75 µM,3.51 µM,7.92 µM
O=c1[nH]c2cc([N+](=O)[O-])ccc2nc1/C=C(\O)c1ccc(Cl)cc1,11.9 µM,78.5 µM,24 µM,40 µM,35.5 µM,23.1 µM,72.3 µM,28.9 µM,60.5 µM,22.6 µM,38.9 µM,78.7 µM,28.4 µM,30.3 µM,46 µM,21.5 µM,26.6 µM,24.7 µM
Cn1c(=O)c2c(nc3n(C)c(=O)c4ccccc4n23)n(C)c1=O,> 100 µM,> 100 µM,> 100 µM,> 100 µM,> 100 µM,> 100 µM,> 100 µM,> 100 µM,> 100 µM,> 100 µM,20.1 µM,> 100 µM,> 100 µM,> 100 µM,> 100 µM,> 100 µM,> 100 µM,> 100 µM
CCOC(=O)c1cc(C#N)[nH]c1-c1ccsc1,51.3 µM,> 100 µM,> 100 µM,69.6 µM,84 µM,77.1 µM,> 100 µM,> 100 µM,> 100 µM,> 100 µM,35.5 µM,> 100 µM,94.9 µM,> 100 µM,> 100 µM,> 100 µM,> 100 µM,> 100 µM
Cc1cn(C2CC(NC(=NCC3OC(n4cnc5c(N)ncnc54)CC3O)NC#N)C(CO)O2)c(=O)[nH]c1=O (configuration not stated),> 100 µM,> 100 µM,> 100 µM,> 100 µM,> 100 µM,> 100 µM,> 100 µM,> 100 µM,> 100 µM,> 100 µM,> 100 µM,> 100 µM,> 100 µM,> 100 µM,> 100 µM,> 100 µM,> 100 µM,> 100 µM
CC(=O)CCC[C@H](C)[C@@H](O)[C@@H]1O[C@H]([C@@]2(C)CCC(=O)O2)C[C@H]1C(=O)O,> 100 µM,> 100 µM,> 100 µM,> 100 µM,> 100 µM,> 100 µM,> 100 µM,> 100 µM,> 100 µM,> 100 µM,> 100 µM,> 100 µM,> 100 µM,> 100 µM,> 100 µM,> 100 µM,> 100 µM,> 100 µM
O=C1OC(CS(=O)(=O)c2ccccc2)CC1O (configuration not stated),> 100 µM,> 100 µM,> 100 µM,> 100 µM,> 100 µM,> 100 µM,> 100 µM,> 100 µM,> 100 µM,> 100 µM,> 100 µM,> 100 µM,> 100 µM,> 100 µM,> 100 µM,> 100 µM,> 100 µM,> 100 µM
CC1=C[C@@H]2[C@@H](CC(CO)=C[C@H]3[C@@H]4C(C)(C)[C@]4(OCC(C)C)[C@H](OCC(C)C)[C@@H](C)[C@]23O)C1=O,3.69 µM,1.4 µM,> 8.32 µM,> 5.69 µM,> 5.64 µM,2.87 µM,1.78 µM,4.68 µM,3.72 µM,> 8.32 µM,3.32 µM,3.49 µM,8.31 µM,3.2 µM,8.23 µM,> 6.08 µM,4.8 µM,3.39 µM
CN1CCc2cc(N)cc3c2C1Cc1ccc2c(c1-3)OCO2 (configuration not stated),> 88.2 µM,> 86.9 µM,> 100 µM,> 100 µM,> 100 µM,> 95 µM,51.4 µM,> 100 µM,> 64.6 µM,> 100 µM,> 39.6 µM,> 100 µM,> 83 µM,70.5 µM,> 77.7 µM,> 100 µM,58.5 µM,> 100 µM
